How the values were obtained:
[1] = Crystallization test of EW formulations Dn (25-μm metal filter); assay type: physicochemical; design: key to Crystallization: −: A minus sign indicates the absence of crystals; +: a plus sign indicates their presence; conditions: 5.0% pesticide in formulation Dn; for Crystallization: 2% of the formulation in 98 ml of water, 1° C. for 24 h, 25-μm metal filter
Protocol: In the crystallization test, an emulsion consisting of 2% of the formulation in 98 ml of water was kept at 1° C. for 24 h and was then passed through a 25-μm metal filter. A minus sign indicates the absence of crystals, while a plus sign indicates their presence. […] The worst emulsion, which however was still acceptable, scored +, a good emulsion scored ++ and the best ones scored +++. Both the phase separation and the time of its occurrence were observed when evaluating the emulsion. […] A single + sign means that some oil did separate out after 2 hours.

[2] = Risk of crystallization of pesticides in ECs and EWs; assay type: physicochemical; conditions: conventional recipes; EW with less than 10% of water
From the text: This is what happened in the case of both EP655197 and EP453899, where the compositions for which the disclosed anticrystallization agents (N,N-dialkylamides) cover the whole range of triazoles with a fungicidal action, without giving examples of all of the compositions in which it is appropriate to use N,N-dimethylalkylamides. […] Propioconazole is an example.
The inventors have established that it is not the similarly of the chemical structure that puts the pesticide “at risk” of crystallization in ECs and EWs, but instead it is much more sensible to evaluate certain experimental parameters (or parameters that are calculated semi-empirically) in order to predict the risk of crystallization. In numerous tests, the inventors have found some pesticides with a risk of crystallization and others without. This risk refers in concrete terms to what happens when 5 ml of the EC or EW is diluted with 95 ml of water and kept in a refrigerator (at 1° C.), after which the emulsion is passed through a 5-μm filter 7 days later.

| Compound | Crystallization [1] | further results |
| --- | --- | --- |
| C=CCOC(=O)C(C)(C)OC(=O)c1cc(-n2c(=O)cc(C(F)(F)F)n(C)c2=O)ccc1Cl [butafenacil] | − |  |
| CNC(=O)Oc1cc(C)c(SC)c(C)c1 [methiocarb] | − |  |
| C[Si](Cn1cncn1)(c1ccc(F)cc1)c1ccc(F)cc1 [flusilazole] | − |  |
| CCNc1nc(Cl)nc(NC(C)C)n1 [atrazine] | − |  |
| Cc1ccc(C(C)NC(=O)[C@@H](NC(=O)OC(C)C)C(C)C)cc1 (some centres unmarked) [iprovalicarb] | − |  |
| CCOP(=S)(OCC)Oc1ccc(=O)n(-c2ccccc2)n1 [pyridaphenthion] | − |  |
| O=C(O)C1(C(=O)Nc2ccc(Cl)cc2Cl)CC1 [cyclanilide] | − |  |
| O=c1oc2ccccc2c(O)c1C(CC(O)c1ccc(-c2ccc(Br)cc2)cc1)c1ccccc1 (centres unmarked) [bromadiolone] | − |  |
| O=C(O)COc1ccc(Cl)cc1Cl [2,4-D] | − |  |
| CC(C)(C)C(=O)C(Oc1ccc(Cl)cc1)n1cncn1 (centres unmarked) [triadimefon] | − |  |
| CC1(C(=O)Nc2ccc(O)c(Cl)c2Cl)CCCCC1 [fenhexamid] | − |  |
| OC(c1ccc(F)cc1)(c1cncnc1)c1ccccc1Cl (centres unmarked) [nuarimol] | − |  |
| Propioconazole |  | Crystallization problems in an emulsifiable concentrate (EC) or emulsion in water (EW) [2]: free of crystallization problems |
| C=CCOC(Cn1ccnc1)c1ccc(Cl)cc1Cl (centres unmarked) [imazalil] | − |  |
| CCOC(=O)CSc1nc(C(C)(C)C)nn1C(=O)N(C)C [triazamate] | + | Crystallization problems (in words) [1]: had crystallization problems |
| CCC(=O)Nc1ccc(Cl)c(Cl)c1 [propanil] | − |  |
| CC(C)(C)C(O)C(Oc1ccc(Cl)cc1)n1cncn1 (centres unmarked) [triadimenol] | − |  |
| CC(C)(C)C(O)(CCc1ccc(Cl)cc1)Cn1cncn1 (centres unmarked) [tebuconazole] | − |  |
| O=c1oc2ccccc2c(O)c1C1CCCc2ccccc21 (centres unmarked) [coumatetralyl] | + |  |
| CCOc1ccccc1OS(=O)(=O)NC(=O)Nc1nc(OC)cc(OC)n1 [ethoxysulfuron] | − |  |
| CC(C)c1ccc(NC(=O)N(C)C)cc1 [isoproturon] | − |  |

| Compound | Crystallization [1] | further results |
| --- | --- | --- |
| CC(C)(C)N(NC(=O)c1ccc(Cl)cc1)C(=O)c1ccccc1 [halofenozide] | − |  |
| c1coc(-c2nc3ccccc3[nH]2)c1 [fuberidazole] | − |  |
| Cc1ccc(NC(=O)N(C)C)cc1Cl [chlorotoluron] | − |  |
| CC1CCCCC1NC(=O)Nc1ccccc1 (centres unmarked) [siduron] | + | Crystallization problems (in words) [1]: had crystallization problems |
| CC1(C)CCC(Cc2ccc(Cl)cc2)C1(O)Cn1cncn1 (centres unmarked) [metconazole] | − |  |
| CCNc1nc(NCC)nc(SC)n1 [simetryn] | − |  |
| COc1ccc(C(=CC(=O)N2CCOCC2)c2ccc(Cl)cc2)cc1OC [dimethomorph] | − |  |
| Cc1cc(Cl)ccc1OCC(=O)O [MCPA] | − |  |
| COC(=O)C(C)N(C(=O)c1ccco1)c1c(C)cccc1C (centres unmarked) [furalaxyl] | − |  |
| CC(C1CC1)C(O)(Cn1cncn1)c1ccc(Cl)cc1 (centres unmarked) [cyproconazole] | − |  |
| CON(C)C(=O)Nc1ccc(Cl)c(Cl)c1 [linuron] | − |  |
| COP(=S)(OC)SCn1nnc2ccccc2c1=O [azinphos-methyl] | − |  |
| CC(C)(C)C(O)C(Cc1ccc(Cl)cc1)n1cncn1 (centres unmarked) [paclobutrazole] | − |  |
| Clc1ccc(C2(Cn3cncn3)CC(Br)CO2)c(Cl)c1 (centres unmarked) [bromuconazole] | − |  |
| CCOC(=O)C1=NN(c2ccc(Cl)cc2Cl)C(C)(C(=O)OCC)C1 (centres unmarked) [mefenpyr-diethyl] | − |  |
| CC1COC(Cn2cncn2)(c2ccc(Oc3ccc(Cl)cc3)cc2Cl)O1 (centres unmarked) [difenconazole] | − |  |
| C/C(=N/Nc1nc(C)cc(C)n1)c1ccccc1C [ferimzone] | − |  |
| CS(=O)(=O)NC(=O)c1cc(Oc2ccc(C(F)(F)F)cc2Cl)ccc1[N+](=O)[O-] [fomesafen] | − |  |
| OC(Cc1ccccc1Cl)(Cn1nc[nH]c1=S)C1(Cl)CC1 (centres unmarked) [prothioconazole] | − |  |
| CCC1(CC2(c3cccc(Cl)c3)CO2)C(=O)c2ccccc2C1=O (centres unmarked) [indanofan] | − |  |
| CN(C)C(=O)Nc1ccc(Cl)c(Cl)c1 [diuron] | − |  |
